The values that follow come from patent US20250171438A1 (Agios Pharmaceuticals, Inc., priority 2022, published 2025).

Like-named read-outs stand apart in the source and are kept apart here. A value given as a limit tells only on which side of the number the result lay.

In the assay the target is T1, human PAH with the R408W mutation (Homo sapiens, UniProt P00439, R408W).
T1 construct: expressed in transfected cells
T1 sequence (P00439 1-452 R408W): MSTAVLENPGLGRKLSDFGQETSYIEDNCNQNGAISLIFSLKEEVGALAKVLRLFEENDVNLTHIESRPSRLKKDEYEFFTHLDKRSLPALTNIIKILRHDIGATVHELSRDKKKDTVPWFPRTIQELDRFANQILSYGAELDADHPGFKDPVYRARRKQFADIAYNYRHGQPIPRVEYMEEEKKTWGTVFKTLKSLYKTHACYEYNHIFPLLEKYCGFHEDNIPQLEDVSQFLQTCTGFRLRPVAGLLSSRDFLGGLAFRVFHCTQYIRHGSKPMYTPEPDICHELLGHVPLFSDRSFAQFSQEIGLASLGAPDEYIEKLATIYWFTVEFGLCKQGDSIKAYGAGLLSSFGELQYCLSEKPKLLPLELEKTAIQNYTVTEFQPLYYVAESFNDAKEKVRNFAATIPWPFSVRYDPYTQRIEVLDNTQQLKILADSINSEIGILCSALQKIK
In words: Cell Based Phenylalanine Flux Assay. Also on record: scale not given here. Particulars: A375 cells expressing human R408W PAH, 13C-Tyrosine by LC-MS, average where tested multiple times.

[1] abbreviates: 24 hrs compound incubation, read-out: AC50.
Where [2] appears, read: 24 hrs with compound, read-out: AC50.

For `COC(C)(C)c1nc(C)c(C(=O)N2CCc3[nH]cnc3[C@@H]2c2nc3c(F)cccc3s2)o1` [Example 1915, (R)-(4-(4-fluorobenzo[d]thiazol-2-yl)-6,7-dihydro-1H-imidazo[4,5-c]pyridin-5(4H)-yl)(2-(2-methoxypropan-2-yl)-4-methyloxazol-5-yl)methanone], under setting [1], the AC50 was more than 5000 nM.

For `O=C(c1oc(CCC2CC2)nc1C(F)(F)F)N1CCc2[nH]cnc2[C@@H]1c1nc2ccccc2s1` [Example 1580, (R)-(4-(benzo[d]thiazol-2-yl)-6,7-dihydro-1H-imidazo[4,5-c]pyridin-5(4H)-yl)(2-(2-cyclopropylethyl)-4-(trifluoromethyl)oxazol-5-yl)methanone], under setting [1], the AC50 was less than 500 nM.

On to `CC(C)(O)c1cc(C(=O)N2CCc3[nH]cnc3C2c2nc3c(F)cccc3s2)ns1` (centres unmarked), for which the half-maximal activity concentration (AC50) under setting [2] lay in the range of 1000 to 5000 nM.

In the case of `O=C(CC1CC1)N1CCc2[nH]cnc2[C@H]1c1nc2ccc(F)cc2[nH]1` [Example 964, (S)-2-cyclopropyl-1-(4-(6-fluoro-1H-benzo[d]imidazol-2-yl)-6,7-dihydro-1H-imidazo[4,5-c]pyridin-5(4H)-yl)ethanone], the AC50 under setting [1] was 500 to 1000 nM.

For `O=C(c1scnc1C1CC1)N1CCc2[nH]cnc2[C@H]1c1nc2ccccc2s1` [Example 1387], the AC50 under setting [1] is less than 500 nM.

In the case of `O=C(c1ncc[nH]1)N1CCc2[nH]cnc2C1c1nc2ccccc2[nH]1` (centres unmarked), under setting [2], the AC50 fell in the range of 1000 to 5000 nM.

For `NC(=O)N1CC(C(=O)N2CCc3[nH]cnc3C2c2nc3ccccc3s2)C1` (centres unmarked), under “24 hrs with compound”, the AC50 result is given as “E, E”.

As for `CC1CN(C(=O)c2cnc(N3CCOCC3)o2)C(c2nc3ccccc3s2)c2nc[nH]c21` (centres unmarked), under setting [2], the AC50 was 1000 to 5000 nM.

As to `Clc1cnc(CN2CCc3[nH]cnc3[C@@H]2c2nc3ccccc3[nH]2)s1` [Example 979, (R)-2-((4-(1H-benzo[d]imidazol-2-yl)-6,7-dihydro-1H-imidazo[4,5-c]pyridin-5(4H)-yl)methyl)-5-chlorothiazole], under setting [1], the AC50 was more than 5000 nM.

On to `Cc1ccc2c(C(=O)N3CCc4[nH]cnc4C3c3nc4ccc(F)cc4s3)cnn2c1` (centres unmarked), for which the AC50 under setting [2] was 1000 to 5000 nM.

For `O=C(c1cnn2cc(CCc3ccccc3)ccc12)N1CCc2[nH]cnc2C1c1nc2ccccc2s1` (centres unmarked), under setting [2], the AC50 is more than 5000 nM.

Take `O=C(c1oc(-c2ccc(F)cn2)nc1C(F)F)N1CCc2[nH]cnc2[C@@H]1c1nc2ccccc2s1` [Example 1745, (R)-(4-(benzo[d]thiazol-2-yl)-6,7-dihydro-1H-imidazo[4,5-c]pyridin-5(4H)-yl)(4-(difluoromethyl)-2-(5-fluoropyridin-2-yl)oxazol-5-yl)methanone]: under setting [1], the AC50 lay in the range of 500 to 1000 nM.

`O=C(c1nc2ccccc2s1)N1CCc2[nH]cnc2C1c1nc2c(F)cccc2s1` (centres unmarked): the AC50 under setting [2] is 1000 to 5000 nM.

As for `Cc1cccc2sc([C@H]3c4nc[nH]c4CCN3C(=O)c3ocnc3C(F)F)nc12` [Example 2012, (R)-(4-(difluoromethyl)oxazol-5-yl)(4-(4-methylbenzo[d]thiazol-2-yl)-6,7-dihydro-1H-imidazo[4,5-c]pyridin-5(4H)-yl)methanone], the AC50 under setting [1] is 1000 to 5000 nM.

Consider `O=C(c1ocnc1C(F)(F)F)N1CCCc2[nH]cnc2[C@@H]1c1nc2ccccc2s1` [Example 2132, (R)-(4-(benzo[d]thiazol-2-yl)-7,8-dihydroimidazo[4,5-c]azepin-5(1H,4H,6H)-yl)(4-(trifluoromethyl)oxazol-5-yl)methanone], for which the AC50 under setting [1] lay in the range of 1000 to 5000 nM.

For `O=C(c1nnc(-c2ccc(F)cc2F)o1)N1CCc2[nH]cnc2[C@@H]1c1nc2c(F)cccc2s1` [Example 1875, (R)-(5-(2,4-difluorophenyl)-1,3,4-oxadiazol-2-yl)(4-(4-fluorobenzo[d]thiazol-2-yl)-6,7-dihydro-1H-imidazo[4,5-c]pyridin-5(4H)-yl)methanone], the AC50 under setting [1] was 1000 to 5000 nM.

For the compound `Cn1ccc(-c2nnc(C(=O)N3CCc4[nH]cnc4[C@H]3c3nc4c(F)cccc4s3)o2)n1` [Example 1826, (S)-(4-(4-fluorobenzo[d]thiazol-2-yl)-6,7-dihydro-1H-imidazo[4,5-c]pyridin-5(4H)-yl)(5-(1-methyl-1H-pyrazol-3-yl)-1,3,4-oxadiazol-2-yl)methanone], the AC50 under setting [1] is less than 500 nM.

Turning to `O=C(c1ocnc1C1CC1)N1CCc2[nH]cnc2[C@@H]1c1nc2ccccc2s1` [Example 1328, (R)-(4-(benzo[d]thiazol-2-yl)-6,7-dihydro-1H-imidazo[4,5-c]pyridin-5(4H)-yl)(4-cyclopropyloxazol-5-yl)methanone], the AC50 under setting [1] fell in the range of 1000 to 5000 nM.

As for `O=C(c1nc(Cl)cs1)N1CCc2[nH]cnc2[C@H]1c1nc2ccccc2s1` [Example 1057], the AC50 under setting [1] is 500 to 1000 nM.

In the case of `Cc1cc(C2(C(=O)N3CCc4[nH]cnc4[C@@H]3c3nc4ccccc4s3)CC2)on1` [Example 1550, (R)-(4-(benzo[d]thiazol-2-yl)-6,7-dihydro-1H-imidazo[4,5-c]pyridin-5(4H)-yl)(1-(3-methylisoxazol-5-yl)cyclopropyl)methanone], the AC50 under setting [1] lay within 1000 to 5000 nM.

As for `O=C(CCC1CCCC1)N1CCc2[nH]cnc2[C@H]1c1nc2ccccc2[nH]1` [Example 913, (S)-1-(4-(1H-benzo[d]imidazol-2-yl)-6,7-dihydro-1H-imidazo[4,5-c]pyridin-5(4H)-yl)-3-cyclopentylpropan-1-one], the AC50 under setting [1] lay within 500 to 1000 nM.

Regarding `Cc1nc(-c2ccccn2)oc1C(=O)N1CCc2[nH]cnc2[C@H]1c1nc2ccccc2s1` [Example 1371], under setting [1], the AC50 was less than 500 nM.

For the compound `CC1CN(C(=O)c2cnco2)C(c2nc3c(F)cccc3s2)c2nc[nH]c21` (centres unmarked), the concentration at half-maximal activity (AC50) under setting [2] is 1000 to 5000 nM.

Take `O=C(C1CC1(F)F)N1CCc2[nH]cnc2C1c1nc2c(F)cccc2s1` (centres unmarked): the AC50 under setting [2] was in the range of 1000 to 5000 nM.

Consider `C[C@@H](O)c1nc(C(F)F)c(C(=O)N2CCc3[nH]cnc3[C@@H]2c2nc3c(F)cccc3s2)o1` [Example 1979, (4-(difluoromethyl)-2-((R)-1-hydroxyethyl)oxazol-5-yl)((R)-4-(4-fluorobenzo[d]thiazol-2-yl)-6,7-dihydro-1H-imidazo[4,5-c]pyridin-5(4H)-yl)methanone], for which the AC50 under setting [1] was in the range of 500 to 1000 nM.

With `O=C(c1nnc(-c2ccn(C(F)F)n2)o1)N1CCc2[nH]cnc2[C@H]1c1nc2c(F)cccc2s1` [Example 1888, (S)-(5-(1-(difluoromethyl)-1H-pyrazol-3-yl)-1,3,4-oxadiazol-2-yl)(4-(4-fluorobenzo[d]thiazol-2-yl)-6,7-dihydro-1H-imidazo[4,5-c]pyridin-5(4H)-yl)methanone], the AC50 under setting [1] is less than 500 nM.

Consider `O=C(c1cnn(CC(F)F)c1Cl)N1CCc2[nH]cnc2[C@@H]1c1nc2c(F)cccc2s1` [Example 2018, (R)-(5-chloro-1-(2,2-difluoroethyl)-1H-pyrazol-4-yl)(4-(4-fluorobenzo[d]thiazol-2-yl)-6,7-dihydro-1H-imidazo[4,5-c]pyridin-5(4H)-yl)methanone], for which the concentration at half-maximal activity (AC50) under setting [1] lay in the range of 1000 to 5000 nM.

In the case of `Cc1nc(C(C)(C)O)oc1C(=O)N1CCc2[nH]cnc2[C@@H]1c1nc2c(F)cccc2s1` [Example 1472, (R)-(4-(4-fluorobenzo[d]thiazol-2-yl)-6,7-dihydro-1H-imidazo[4,5-c]pyridin-5(4H)-yl)(2-(2-hydroxypropan-2-yl)-4-methyloxazol-5-yl)methanone], the AC50 under setting [1] fell in the range of 1000 to 5000 nM.

`O=C(c1nnc(-c2ccc(F)cc2F)o1)N1CCc2[nH]cnc2[C@H]1c1nc2c(F)cccc2s1` [Example 1876, (S)-(5-(2,4-difluorophenyl)-1,3,4-oxadiazol-2-yl)(4-(4-fluorobenzo[d]thiazol-2-yl)-6,7-dihydro-1H-imidazo[4,5-c]pyridin-5(4H)-yl)methanone]: the AC50 under setting [1] is less than 500 nM.
